# Tests used:
# [1] = Stability and protonation constants of Ca(II)-complexes (pH-potentiometry); format: physicochemical; conditions: 0.15 M NaCl, 25 °C
# Method: The protonation constants of ligands, the stability and protonation constants of Ca(II)‐ and Zn(II)‐complexes formed with rac‐L1, ent‐L1, rac‐L2, and ent‐L2 ligands were determined by pH‐potentiometric titration. The metal‐to‐ligand concentration ratio was 1:1 (the concentration of the ligand was generally 0.002 M). The protonation constants of the Cu(II)‐ and Gd(III)‐complexes were determined using pH‐potentiometry by titrating the pre‐prepared complexes from pH 2.0 to 12.0 with 0.2 M NaOH. The stability constants of the Gd(III)‐complexes with rac‐L1 and ent‐L1 ligands were determined by the “out‐of‐cell” technique because of their slow formation reaction. The pH range of the complexation equilibria and the time needed to reach the equilibria were determined by relaxometry. Eight–eight Gd(III) – rac‐L1 and Gd(III) – ent‐L1 samples were prepared, with pH values in the range of 1.7–3.0 at equilibrium ([Gd^3+] = [L] = 0.002 M). The samples were kept at 25 °C for 6 weeks to reach equilibrium. For the calculation of the stability constants of the [Gd(rac‐L1)]^3− and [Gd(ent‐L1)]^3− complexes, besides the protonation constants of ligands and the Gd(III) complexes, the stability constants of the di‐protonated [^*Gd(H2 rac‐L1)]^− and [^*Gd(H2 […])]^− out‐of‐cage complexes (considered as intermediates) was also used as fixed values, which were calculated from the pH‐potentiometric titration curve of the Gd(III) – rac‐L1 and Gd(III) – ent‐L1 system obtained in the pH range of 1.7–7.0.
# For the pH measurements and titrations, the Metrohm 888 Titrando titration workstation Metrohm‐6.0234.110 combined electrode was used. Equilibrium measurements were carried out at a constant ionic strength (0.15 M NaCl) in 6 mL samples at 25 °C. The solutions were stirred, and N2 was bubbled through them. The titrations were made in the pH range 1.7–12.0. KH‐Phthalate (pH 4.005) and borax (pH 9.177) buffers were used to calibrate the pH meter. For the calculation of [H^+] from the measured pH values, the method proposed by Irving et al. was used as follows.^[ [46] ^] A 0.01M HCl solution was titrated with standardized NaOH solution at 0.15 M NaCl ionic strength. The differences (A) between the measured (pHread) and calculated pH (‐log[H^+]) values were used to obtain the equilibrium H^+ concentration from the pH values measured in the titration experiments (A = 0.02). For the equilibrium calculations, the stoichiometric water ionic product (pK w) was also needed in order to calculate [OH^−] values under basic conditions. The VNaOH – pHread data pairs of the HCl – NaOH titration obtained in the pH range 10.5–12.0 were used to calculate the pK w value (pK w = 13.83).
# The stability and protonation constants of Ca(II)-, Zn(II)-, Cu(II)- and Gd(III)-complexes of rac-L1, ent-L1, rac-L2 and ent-L2, defined by Equations (S2) and (S3), were investigated by pH-potentiometry, spectrophotometry and ^1H NMR relaxometry at 25 °C in 0.15 M NaCl solution.
# where i=0, 1, 2,…5. The KML and KMHiL values characterizing the formation of Ca(II)-, Zn(II)-, Cu(II)- and Gd(III)-complexes with rac-L1, ent-L1, rac-L2 and ent-L2 ligands have been calculated from the pH-potentiometric titration data obtained at 1:1 metal to ligand concentration ratios. In calculating the equilibrium constants, the best fitting of the mL NaOH – pH data has been obtained by assuming the formation of ML, MHL, MH2L, MH3L, MH4L, MH5L and MLH-1 species. The formation of the deprotonated [GdLH-1]^- complexes with rac-L2 and ent-L2 ligands takes place at pH>9.0, as indicated by the base consumption in the titration curves. This deprotonation of the Gd(III)-complexes occurs on the inner-sphere water molecule.
# [2] = Relaxivity at 21 / 400 MHz and 25 °C in 0.15 M NaCl; format: physicochemical; conditions: 0.15 M NaCl
# Method: The relaxivity values were calculated from the longitudinal relaxation time of H2O protons (T 1) measured at 21 MHz on a Stelar relaxometer connected to a Bruker WP80 NMR electromagnet adapted to variable‐field measurements (15−80 MHz proton Larmor frequency). The temperature of the sample holder was controlled with a thermostatted air stream. The longitudinal relaxation time was measured with the “inversion recovery” method (180° – τ – 90°) by using 12 different τ values with typical 90° pulse width of 6.4 µs, 4 scans. The measurements were performed with 1 mM solution of the Gd(III)‐complexes with rac‐L1, ent‐L1, rac‐L2, and ent‐L2 ligands, so the relaxivity values were given as r 1 = […] where T 1p and T 1w were the relaxation time of bulk water protons in the presence and absence of paramagnetic species, respectively. The variable pH relaxivity measurements of Gd(III)‐complexes with rac‐L1, ent‐L1, rac‐L2, and ent‐L2 ligands could be carried out by direct titration of the samples in the pH range 2.5–9.0 (21 MHz, 25 °C, 0.15 M NaCl). The pH was adjusted by stepwise addition of concentrated NaOH or HCl solution.
# The stability constant of Gd(III)‐complexes with rac‐L2 and ent‐L2 ligands were determined by the measurement of the proton relaxation rates (r 1) studying the competition reaction of rac‐L2 and ent‐L2 ligands with AAZTA for Gd(III) ion at pH = 4.0 in 0.15 M NaCl solution. In these experiments, the concentration of Gd^3+, rac‐L2, and ent‐L2 ligands was 2.0 mM, while that of the AAZTA was varied between 1.0 and 6.0 mM (5 × 1.5 mL samples). The pH was adjusted to pH 4.0 by stepwise addition of concentrated NaOH or HCl solutions. The samples were kept at 70 °C for a month and then at 25°C for two months in order to attain the equilibrium (the time needed to reach the equilibria was determined by ^1H‐NMR relaxometry). ^1H‐NMR relaxometric measurement of Gd(III) – rac‐L2 – AAZTA and Gd(III) – ent‐L2 – AAZTA systems were performed with a Bruker Avance III 400 (9.4 T) equipped with BB inverse z gradient probe (5 mm). The longitudinal relaxation time (T 1) was measured with the “inversion recovery” method (180° – τ – 90°) by using 12 different τ values with typical 90° pulse width of 12.0 µs, 4 scans at 298 K. The stability constants of [Gd(rac‐L2)] and [Gd(ent‐L2)] complexes were calculated by considering the protonation constants of AAZTA ligand and the stability constant of [Gd(AAZTA)]^− complex (AAZTA: logK 1 ^H = 10.06, logK 2 ^H = 6.50, logK 3 ^H = 3.77, logK 4 ^H = 2.33, logK 5 ^H = 1.51; [Gd(AAZTA)]^−: logK GdL = 18.93, 0.15 M NaCl, 25 °C).^[ [47] ^] The equilibrium constants were calculated with the program PSEQUAD.^[ [48] ^]
Structure (SMILES),logK CaL [1],logKCaH2L [1],logKCaH3L [1],logKCaH4L [1],logKCaHL [1],Relaxivity of GdH2L species ([2]; 21 MHz) [mM⁻¹ s⁻¹],Relaxivity of GdH3L species ([2]; 21 MHz) [mM⁻¹ s⁻¹],Relaxivity of GdH4L species ([2]; 21 MHz) [mM⁻¹ s⁻¹],Relaxivity of GdHL species ([2]; 21 MHz) [mM⁻¹ s⁻¹],Relaxivity of GdL species ([2]; 21 MHz) [mM⁻¹ s⁻¹],Relaxivity of GdL species ([2]; 400 MHz) [mM⁻¹ s⁻¹]
"O=C(O)CCC(C(=O)O)N1CCN(C(CCC(=O)O)C(=O)O)Cc2cccc(n2)CN(C(CCC(=O)O)C(=O)O)CC1 (racemic) [rac‐L1, 2,2’,2’’-[3,6,9,15-tetraazabicyclo[9.3.1]pentadeca-1(15),11,13-triene-3,6,9-triyl]tripentanedioic acid]",10.10 (1),5.34 (2),4.83 (4),4.45 (2),5.72 (1),9.61 ± 0.06,10.1 ± 0.1,11.7 ± 0.1,9.61 ± 0.06,9.61 ± 0.06,–
O=C(CCC(C(=O)O)N1CCN(C(CCC(=O)NCC(O)CO)C(=O)O)Cc2cccc(n2)CN(C(CCC(=O)NCC(O)CO)C(=O)O)CC1)NCC(O)CO (racemic) [rac‐L2],7.84 (2),–,–,–,4.86 (9),–,–,–,–,14.8 ± 0.1,10.8 ± 0.1
O=C(O)CCC(C(=O)O)N1CCN(C(CCC(=O)O)C(=O)O)Cc2cccc(n2)CN(C(CCC(=O)O)C(=O)O)CC1 (stereo not drawn) [ent‐L1],11.03 (1),5.01 (2),4.74 (2),4.24 (3),5.59 (2),12.2 ± 0.2,11.8 ± 0.1,–,12.1 ± 0.1,12.9 ± 0.1,–
O=C(CCC(C(=O)O)N1CCN(C(CCC(=O)NCC(O)CO)C(=O)O)Cc2cccc(n2)CN(C(CCC(=O)NCC(O)CO)C(=O)O)CC1)NCC(O)CO (stereo not drawn) [ent‐L2],10.26 (1),–,–,–,4.16 (2),–,–,–,–,16.2 ± 0.1,11.8 ± 0.1
